Literature values, collected in patent publication US12350300B2, “Use of dopamine producing products to increase vaccine efficacy” (Iowa State University Research Foundation, Inc., priority 2021, dated 2025).

How the values were obtained:
mouse colitis = details: Herak-Perkovic 2001
longitudinal muscle = details: read-out: EC50, relaxation
circular muscle = details: read-out: EC50, contractions

EC50 (longitudinal muscle): 29 µM | EC50 (circular muscle): 6.3 µM
SMILES: NCCc1ccc(O)c(O)c1 [dopamine]
effect against the development of inflammation (mouse colitis): protective effect
